Test results from patent US11766419B2, “Mebeverine as soluble epoxide hydrolase inhibitor” (Banasthali Vidyapith, priority 2021, dated 2023).
“And” between values parts separate entries of the source, which are not always exact repeats. Equal entries are not always repeated.

Assays:
[1] = tested on: isolated rat aortic strip; assay: Ex-vivo relaxation of KCl pre-constricted isolated rat aortic strip; conditions: aortic rings constricted with 80 mmol KCl
Procedure: Aortic rings were suspended in organ baths containing a modified Krebs buffer and bubbled with a mixture of 95% O2/5% CO2. Rings were connected to an isometric force transducer, resting tension was set to 5 g and constricted with 80 mmol KCl. The relaxation of these pre-constricted aortic trips at different concentrations of mebeverine (10^−9-10^−[…]) are tabulated in Table 2 and plotted in FIG. 2.

[2] = tested on: DOCA-induced hypertensive rats; assay: DOCA induced hypertension, blood pressure; type: in vivo, rat
Procedure: Wistar albino male rats were divided into four experimental groups (I, II, III and IV). Groups (II-IV) were administered with DOCA (20 mg/kg in 5% DMSO) intraperitoneally and drinking water was replaced by 2% NaCl. After induction of high blood pressure, Groups III and IV were treated with 10 mg/kg and 20 mg/kg mebeverine orally, respectively. At the end of this experimental period SAP, DAP and MAP were measured. The results are tabulated below in Tables 4A, 4B and 4C, respectively, and are plotted in FIGS. 4a, 4b and 4c.

[3] = tested on: DOCA-induced hypertensive rats; assay: SOD and TBAR level in heart and aortic tissue, DOCA induced hypertension; type: in vivo, rat
Procedure: Wistar albino male rats were divided into four experimental groups (I, II, III and IV). Groups (II-IV) were administered with DOCA (20 mg/kg in 5% DMSO) intraperitoneally and drinking water was replaced by 2% NaCl. […] At the end of this experimental period SAP, DAP and MAP were measured. The results are tabulated below in Tables 4A, 4B and 4C, respectively, and are plotted in FIGS. 4a, 4b and 4c. Additionally, the levels of oxidative stress biomarkers, superoxide dismutase (SOD) and thiobarbituric acid (TBARs)s in heart and aortic tissue were also measured (Cayman commercial kit). The results are tabulated in Table 5 and plotted in FIGS. 5a and 5b (TBAR level) and 6a and 6b (SOD level).

[4] = tested on: Triton WR-1339 induced hyperlipidaemic rats; assay: Triton WR-1339 induced hyperlipidemia, serum lipid profile and CRI/AI; type: in vivo, rat; conditions: for CRI: Coronary risk index; for Cholesterol / HDL / LDL / Triglycerides / VLDL: serum
Procedure: Wistar albino male rats were divided into four experimental groups (I, II, III and IV). Groups II-IV were treated with intraperitoneal injection of Triton WR-1339 (200 mg/kg in 2% gum acacia) in 12 h fasted rats to induce hyperlipidemia. Group III and IV were orally administered with Mebeverine twice daily for 3 days at 10 mg/kg and 20 mg/kg. After 48 h, induction of hyperlipidemia blood serum was investigated for total cholesterol and triglycerides. Blood samples were collected from all experimental rats on day 6 (4 days after start of treatment), and, subsequently, serum was separated for analysis of serum lipid profile parameters and CRI/AI. Liver was excised and stored at −80° C. until biochemical parameters in hepatic tissue samples were analysed. The results are tabulated below in Table 6 and plotted in FIGS. 7 (a-e) and 8.

[5] = tested on: Lipopolysaccharide (LPS)-induced hyperlipidaemic rats; assay: LPS-induced hyperlipidemia, serum lipid profile and CRI/AI; type: in vivo, rat; conditions: for AI: Atherogenic index; for CRI: Coronary risk index; for Cholesterol / HDL / LDL / Triglycerides / VLDL: serum
Procedure: Wistar albino male rats were divided into different experimental groups—Single dose of 10 mg/kg, i.p. of LPS was administered to all the groups (II-IV). After 3 days of induction mebeverine was orally given twice daily for 5 days to groups (III-IV). After last dose, on day 5, blood samples were collected from all experimental rats for analysis of serum lipid profile parameters and CRI/AI. The results are tabulated below in Table 8 and plotted in FIGS. 11 (a-e) and 12. Biochemical estimations in hepatic tissue samples were also analyzed.

[6] = tested on: Lipopolysaccharide (LPS)-induced hyperlipidemic rats; assay: TBAR and SOD level in hepatic tissue, LPS-induced hyperlipidemia; type: in vivo, rat
Procedure: Wistar albino male rats were divided into different experimental groups—Single dose of 10 mg/kg, i.p. of LPS was administered to all the groups (II-IV). After 3 days of induction mebeverine was orally given twice daily for 5 days to groups (III-IV). After last dose, on day 5, blood samples were collected from all experimental rats for analysis of serum lipid profile parameters and CRI/AI. […] Biochemical estimations in hepatic tissue samples were also analyzed.

[7] = 10 mg/kg orally twice daily for 3 days
[8] = 20 mg/kg orally twice daily for 3 days
[9] = 10 mg/kg orally twice daily for 5 days
[10] = 20 mg/kg orally twice daily for 5 days

CCN(CCCCOC(=O)c1ccc(OC)c(OC)c1)C(C)Cc1ccc(OC)cc1 (centres unmarked) [Mebeverine]
% relaxation ([1]; Mebeverine conc 10^−4 nM (maximal relaxant effect)): 79.3±0.01% and 79.3% | % relaxation ([1]; Mebeverine conc 10^−5 nM): 71.1% | % relaxation ([1]; Mebeverine conc 10^−6 nM): 64.9% | % relaxation ([1]; Mebeverine conc 10^−7 nM): 52.2% | % relaxation ([1]; Mebeverine conc 10^−8 nM): 23.9% | % relaxation ([1]; Mebeverine conc 10^−9 nM): 14.5% | DAP ([2]; 10 mg/kg orally, D 0): 168 ± 10.60 mm Hg | MAP ([2]; 10 mg/kg orally, D 0): 179 ± 7.63 mm Hg | SAP ([2]; 10 mg/kg orally, D 0): 213 ± 2.82 mm Hg | DAP ([2]; 10 mg/kg orally, D 3): 156 ± 9.89 mm Hg | MAP ([2]; 10 mg/kg orally, D 3): 170 ± 0.52 mm Hg | SAP ([2]; 10 mg/kg orally, D 3): 187 ± 8.48 mm Hg | DAP ([2]; 10 mg/kg orally, D 4): 101 ± 1.52 mm Hg | MAP ([2]; 10 mg/kg orally, D 4): 114 ± 6.08 mm Hg | SAP ([2]; 10 mg/kg orally, D 4): 140 ± 8.00 mm Hg | DAP ([2]; 10 mg/kg orally, D 5): 84 ± 1.06 mm Hg | MAP ([2]; 10 mg/kg orally, D 5): 99 ± 0.77 mm Hg | SAP ([2]; 10 mg/kg orally, D 5): 108 ± 1.41 mm Hg | DAP ([2]; 20 mg/kg orally, D 0): 185 ± 3.50 mm Hg | MAP ([2]; 20 mg/kg orally, D 0): 199 ± 6.54 mm Hg | SAP ([2]; 20 mg/kg orally, D 0): 226 ± 4.94 mm Hg | DAP ([2]; 20 mg/kg orally, D 3): 128 ± 7.07 mm Hg | MAP ([2]; 20 mg/kg orally, D 3): 140 ± 1.71 mm Hg | SAP ([2]; 20 mg/kg orally, D 3): 166 ± 6.36 mm Hg | DAP ([2]; 20 mg/kg orally, D 4): 83 ± 5.13 mm Hg | MAP ([2]; 20 mg/kg orally, D 4): 96 ± 7.57 mm Hg | SAP ([2]; 20 mg/kg orally, D 4): 114 ± 10.01 mm Hg | DAP ([2]; 20 mg/kg orally, D 5): 72 ± 0.70 mm Hg | MAP ([2]; 20 mg/kg orally, D 5): 86 ± 0.63 mm Hg | SAP ([2]; 20 mg/kg orally, D 5): 98 ± 1.09 mm Hg | SOD Level ([3]; Aortic tissue, 10 mg/kg): 70.20 ± 0.28 U/g tissue | TBAR level ([3]; Aortic tissue, 10 mg/kg): 0.87 ± 0.02 nmol/mg protein | SOD Level ([3]; Aortic tissue, 20 mg/kg): 90.21 ± 0.21 U/g tissue | TBAR level ([3]; Aortic tissue, 20 mg/kg): 0.71 ± 0.03 nmol/mg protein | SOD Level ([3]; Heart tissue, 10 mg/kg): 73.04 ± 0.29 U/g tissue | TBAR level ([3]; Heart tissue, 10 mg/kg): 0.88 ± 0.03 nmol/mg protein | SOD Level ([3]; Heart tissue, 20 mg/kg): 86.24 ± 0.37 U/g tissue | TBAR level ([3]; Heart tissue, 20 mg/kg): 0.68 ± 0.01 nmol/mg protein | SOD activity (in words) ([3]; aortic and heart tissue): significant dose dependent increase | TBARs concentration (in words) ([3]; aortic and heart tissue): significant dose dependent decrease | HDL (in words) ([4]; 10 mg/kg): increases HDL | triglycerides, cholesterol, LDL and VLDL and CRI/AI (in words) ([4]; 10 mg/kg): markedly decreases | AT [4, 7]: 2.32 ± 0.02 | AT [4, 8]: 0.79 ± 0.19 | CRI [4, 7]: 3.32 ± 0.02 | CRI [4, 8]: 1.79 ± 0.02 | Cholesterol [4, 7]: 108.00 ± 8.48 mg/dL | HDL [4, 7]: 32.50 ± 2.12 mg/dL | LDL [4, 7]: 55.90 ± 9.75 mg/dL | Triglycerides [4, 7]: 98.00 ± 9.8 mg/dL | VLDL [4, 7]: 19.60 ± 3.25 mg/dL | Cholesterol [4, 8]: 95.00 ± 4.94 mg/dL | HDL [4, 8]: 53.00 ± 1.59 mg/dL | LDL [4, 8]: 26.90 ± 1.83 mg/dL | Triglycerides [4, 8]: 77.00 ± 9.19 mg/dL | VLDL [4, 8]: 15.40 ± 1.83 mg/dL | AI [5, 9]: 2.14 ± 0.02 | AI [5, 10]: 1.01 ± 0.17 | CRI [5, 9]: 3.14 ± 0.14 | CRI [5, 10]: 2.01 ± 0.17 | Cholesterol [5, 9]: 132.5 ± 4.24 mg/dL | HDL [5, 9]: 42.0 ± 1.41 mg/dL | LDL [5, 9]: 58.3 ± 3.25 mg/dL | Triglycerides [5, 9]: 158.5 ± 3.58 mg/dL | VLDL [5, 9]: 31.6 ± 0.34 mg/dL | Cholesterol [5, 10]: 103.50 ± 1.41 mg/dL | HDL [5, 10]: 51.00 ± 3.53 mg/dL | LDL [5, 10]: 30.0 ± 3.25 mg/dL | Triglycerides [5, 10]: 110.00 ± 2.82 mg/dL | VLDL [5, 10]: 22.0 ± 0.56 mg/dL | SOD ([6]; 10 mg/kg): 67.13 ± 0.21 U/g protein | TBAR ([6]; 10 mg/kg): 1.10 ± 0.01 nmol/mg protein | SOD ([6]; 20 mg/kg): 74.50 ± 0.15 U/g protein | TBAR ([6]; 20 mg/kg): 0.701 ± 0.02 nmol/mg protein
